Results reported in US20090124678A1, “Combined Use of Metconazole and Epoxiconazole for Reducing or Preventing the Contamination of Cereals With Mycotoxins” (priority 2005, published 2009).

How the values were obtained:
[1] = tested on: Fusarium sp.; assay: Fusarium ear infection of winter wheat under field conditions, determined visually; format: in vivo, Fusarium sp. on winter wheat cultivar "Ritmo"; conditions: winter wheat "Ritmo" inoculated with Fusarium sp. at GS 25-29, sprayed at GS 63, assessed three weeks after application, relative to untreated control, metconazole 45 g/ha, epoxyconazole 75 g/ha
Protocol: (§1) At growth stage GS 25-29 (tillering), outdoor winter wheat of the cultivar “Ritmo” was inoculated with rye grains infected with Fusarium sp. The active compounds were applied at growth stage GS 63 (beginning of flowering). Both metconazole and epoxyconazole were used as finished formulations (metconazole: trade name “Caramba”; epoxyconazole: trade name “Opus”; metconazole as SL=[…]; epoxyconazole as SC=suspensible concentrate). These formulations were diluted with water to the desired concentration, and the plants were treated by spraying with these diluted preparations. The active compounds were applied jointly as a tank mix. For comparison, the individual fungicides were also only employed on their own. Three weeks after application, the infection of the ears with Fusarium fungi was determined visually. The wheat grains were harvested and the DON content of the grains was determined after extraction and analysis by HPLC/MS. For comparative evaluation, the Fusarium infection and the DON value found for untreated wheat were defined as 100%. […] The expected efficacies for active compound combinations were determined using Colby's formula (S. R. Colby, Calculating Synergistic and Antagonistic Responses of Herbicide Combinations, Weeds, 15, pages 20-22, 1967) and compared with the observed efficacies.

[2] = tested on: deoxynivalenol (DON); assay: DON content of harvested wheat grains after field treatment (extraction, HPLC/MS); format: in vivo, Fusarium sp. on winter wheat cultivar "Ritmo"; conditions: relative to untreated wheat (33.7 mg/kg DON), sprayed at GS 63, metconazole 45 g/ha, epoxyconazole 75 g/ha
Protocol: as §1

Compound	Effect on infection [%] [1] [%]	Reduction of DON content [%] [2] [%]
Fc1ccc([C@]2(Cn3cncn3)O[C@H]2c2ccccc2Cl)cc1 (racemic) [epoxyconazole]	5	0
CC1(C)CCC(Cc2ccc(Cl)cc2)C1(O)Cn1cncn1 (stereo not shown) [metconazole]	27	33
